Test results as given in EP4785795A1 (priority 2023, dated 2025).

Test system: Aspergillus flavus
Type: cell-based

SMILES | aflatoxin production inhibiting activity | aflatoxin production inhibiting activity relative to the natural product cyclo (L-Ala-Gly) (based on the IC50 (concentration that reduces the amount of aflatoxin B1 to 1/2), 25°C, 4 days)
C[C@H]1NC(=O)CNC1=O [cyclo (D-Ala-Gly)] | did not exhibit sufficient aflatoxin production inhibiting activity | –
O=C1CNC(=O)CN1 [cyclo (Gly-Gly)] | did not exhibit sufficient aflatoxin production inhibiting activity | –
CC[C@@H]1NC(=O)CNC1=O [cyclo (L-Abu(2)-Gly)] | extremely excellent aflatoxin production inhibiting activity | 75 fold
